Results as given in patent US20260265233A1, “BENZOTHIOPHENE DERIVATIVES AS RXFP1 AGONISTS” (BRISTOL-MYERS SQUIBB COMPANY, priority 2021, published 2026).

Molecular target: T1, human RXFP1 (Homo sapiens, UniProt Q9HBX9)
T1 construct: expressed in transfected cells
T1 sequence (Q9HBX9 1-757): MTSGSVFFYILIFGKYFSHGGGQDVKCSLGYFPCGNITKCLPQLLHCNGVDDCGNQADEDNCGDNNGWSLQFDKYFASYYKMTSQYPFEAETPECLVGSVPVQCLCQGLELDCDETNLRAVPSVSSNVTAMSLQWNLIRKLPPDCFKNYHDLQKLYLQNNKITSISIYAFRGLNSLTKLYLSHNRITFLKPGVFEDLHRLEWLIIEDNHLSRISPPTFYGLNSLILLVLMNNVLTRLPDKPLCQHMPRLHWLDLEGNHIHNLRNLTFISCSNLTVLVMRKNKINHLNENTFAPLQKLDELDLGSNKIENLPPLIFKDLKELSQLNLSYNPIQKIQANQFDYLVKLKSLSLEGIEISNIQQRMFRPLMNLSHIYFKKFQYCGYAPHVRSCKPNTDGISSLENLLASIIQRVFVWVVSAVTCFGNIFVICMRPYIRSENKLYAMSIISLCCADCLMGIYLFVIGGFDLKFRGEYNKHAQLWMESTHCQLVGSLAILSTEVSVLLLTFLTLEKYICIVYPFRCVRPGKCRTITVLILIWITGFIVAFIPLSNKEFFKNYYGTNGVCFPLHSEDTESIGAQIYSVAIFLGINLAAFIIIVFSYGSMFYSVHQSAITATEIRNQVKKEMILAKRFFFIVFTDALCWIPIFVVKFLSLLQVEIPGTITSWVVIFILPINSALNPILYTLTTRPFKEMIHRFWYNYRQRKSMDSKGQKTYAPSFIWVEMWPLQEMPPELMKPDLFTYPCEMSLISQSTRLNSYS
Assay: hRXFP1 HEK293 cAMP assay (HTRF)
Format: cell-based
Conditions: HEK293 cells stably expressing human RXFP1; 30 min at rt; intracellular cAMP by HTRF
Description: RXFP1 Cyclic Adenosine Monophosphate (cAMP) Assays. Human embryonic kidney cells 293 (HEK293) cells and HEK293 cells stably expressing human RXFP1, were cultured in MEM medium supplemented with 10% qualified FBS, and 300 μg/ml hygromycin (Life Technologies). Cells were dissociated and suspended in assay buffer. The assay buffer was HBSS buffer (with calcium and magnesium) containing 20 mM HEPES, 0.05% BSA, and 0.5 mM IBMX. Cells (3000 cells per well, except 1500 cell per well for HEK293 cells stably expressing human RXFP1) were added to 384-well Proxiplates (Perkin-Elmer). Cells were immediately treated with test compounds in DMSO (2% final) at final concentrations in the range of 0.010 nM to 50 μM. Cells were incubated for 30 min at rt. The level of intracellular cAMP was determined using the HTRF HiRange cAMP assay reagent kit (Cisbio) according to manufacturer's instructions. Solutions of cryptate conjugated anti-cAMP and d2 fluorophore-labelled cAMP were made in a supplied lysis buffer separately. Upon completion of the reaction, the cells were lysed with equal volume of the d2-cAMP solution and anti-cAMP solution. After a 1 h rt incubation, time-resolved fluorescence intensity was measured using the Envision (Perkin-Elmer) at 400 nm excitation and dual emission at 590 nm and 665 nm. A calibration curve was constructed with an external cAMP standard at concentrations ranging from 2.7 μM to 0.1 pM by plotting the fluorescent intensity ratio from 665 nm emission to the intensity from the 590 nm emission against cAMP concentrations. The potency and activity of a compound to […] cAMP production was then determined by fitting to a 4-parametric logistic equation from a plot of cAMP level versus compound concentrations.
The examples disclosed below were tested in the human RXFP1 (hRXFP1) HEK293 cAMP assay described above and found to have agonist activity.

SMILES | EC50
COc1ccc(C2CCCC(C)(O)C2)cc1C(=O)Nc1c(C(=O)Nc2ccc(F)c(C(F)(F)F)c2)sc2cc(C(F)(F)F)ccc12 (single isomer, unassigned) [Example 35, N-(4-fluoro-3-(trifluoromethyl)phenyl)-3-(5-(3-hydroxy-3-methylcyclohexyl)-2-methoxybenzamido)-6-(trifluoromethyl)benzo[b]thiophene-2-carboxamide] | 794 nM
COc1ccc(C2CCCC(C)(O)C2)cc1C(=O)Nc1c(C(=O)Nc2ccc(F)c(C(F)(F)F)c2)sc2cc(C(F)(F)F)ccc12 (single isomer, unassigned) [Example 36, N-(4-fluoro-3-(trifluoromethyl)phenyl)-3-(5-(3-hydroxy-3-methylcyclohexyl)-2-methoxybenzamido)-6-(trifluoromethyl)benzo[b]thiophene-2-carboxamide] | 244 nM
COc1ccc(C2CCC(C)(O)CC2)cc1C(=O)Nc1c(C(=O)Nc2ccc(F)c(C(F)(F)F)c2)sc2cc(C(F)(F)F)ccc12 (single isomer, unassigned) [Example 37, N-(4-fluoro-3-(trifluoromethyl)phenyl)-3-(5-(4-hydroxy-4-methylcyclohexyl)-2-methoxybenzamido)-6-(trifluoromethyl)benzo[b]thiophene-2-carboxamide] | 158 nM
COc1ccc(C2CCC(C)(O)CC2)cc1C(=O)Nc1c(C(=O)Nc2ccc(F)c(C(F)(F)F)c2)sc2cc(C(F)(F)F)ccc12 (single isomer, unassigned) [Example 38, N-(4-fluoro-3-(trifluoromethyl)phenyl)-3-(5-(4-hydroxy-4-methylcyclohexyl)-2-methoxybenzamido)-6-(trifluoromethyl)benzo[b]thiophene-2-carboxamide] | 194 nM
COc1ccc(CCCO)cc1C(=O)Nc1c(C(=O)NC2CCCC(C(F)(F)F)C2)sc2cc(C(F)(F)F)ccc12 (single isomer, unassigned) [Example 44, 3-(5-(3-hydroxypropyl)-2-methoxybenzamido)-6-(trifluoromethyl)-N-(3-(trifluoromethyl)cyclohexyl) benzo[b]thiophene-2-carboxamide] | 3740 nM
COc1ccc(C2CC2C(=O)O)cc1C(=O)Nc1c(C(=O)Nc2ccc(F)c(C(F)(F)F)c2)sc2cc(C(F)(F)F)ccc12 (single isomer, unassigned) [Example 47, 2-(3-((2-((4-fluoro-3-(trifluoromethyl)phenyl)carbamoyl)-6-(trifluoromethyl)benzo[b]thiophen-3-yl)carbamoyl)-4-methoxyphenyl) cyclopropane-1-carboxylic acid] | 1060 nM
COc1ccc(C2CC2C(=O)O)cc1C(=O)Nc1c(C(=O)Nc2ccc(F)c(C(F)(F)F)c2)sc2cc(C(F)(F)F)ccc12 (single isomer, unassigned) [Example 48, 2-(3-((2-((4-fluoro-3-(trifluoromethyl)phenyl)carbamoyl)-6-(trifluoromethyl)benzo[b]thiophen-3-yl)carbamoyl)-4-methoxyphenyl) cyclopropane-1-carboxylic acid] | 58.4 nM
COc1ccc(C2=NOC3CN(CC(C)(C)O)CC23)cc1C(=O)Nc1c(C(=O)Nc2ccc(F)c(C(F)(F)F)c2)sc2cc(C(F)(F)F)ccc12 (single isomer, unassigned) [Example 53, N-(4-fluoro-3-(trifluoromethyl)phenyl)-3-(5-(5-(2-hydroxy-2-methylpropyl)-3a, 5,6,6a-tetrahydro-4H-pyrrolo[3,4-d]isoxazol-3-yl)-2-methoxybenzamido)-6-(trifluoromethyl)benzo[b]thiophene-2-carboxamide] | 71 nM
COc1ccc(C2=NOC3CN(CC(C)(C)O)CC23)cc1C(=O)Nc1c(C(=O)Nc2ccc(F)c(C(F)(F)F)c2)sc2cc(C(F)(F)F)ccc12 (single isomer, unassigned) [Example 54, N-(4-fluoro-3-(trifluoromethyl)phenyl)-3-(5-(5-(2-hydroxy-2-methylpropyl)-3a, 5,6,6a-tetrahydro-4H-pyrrolo[3,4-d]isoxazol-3-yl)-2-methoxybenzamido)-6-(trifluoromethyl)benzo[b]thiophene-2-carboxamide] | 306 nM
COc1ccc(C2=NOC3CC(C(C)(C)O)CC23)cc1C(=O)Nc1c(C(=O)Nc2ccc(F)c(C(F)(F)F)c2)sc2cc(C(F)(F)F)ccc12 (single isomer, unassigned) [Example 55, N-(4-fluoro-3-(trifluoromethyl)phenyl)-3-(5-(5-(2-hydroxypropan-2-yl)-3a, 5,6,6a-tetrahydro-4H-cyclopenta[d]isoxazol-3-yl)-2-methoxybenzamido)-6-(trifluoromethyl)benzo[b]thiophene-2-carboxamide] | 320 nM

The next lines start with the values.

EC50 | SMILES
9.5 nM | COc1ccc(C2=NOC3CC(C(C)(C)O)CC23)cc1C(=O)Nc1c(C(=O)Nc2ccc(F)c(C(F)(F)F)c2)sc2cc(C(F)(F)F)ccc12 (single isomer, unassigned) [Example 56, N-(4-fluoro-3-(trifluoromethyl)phenyl)-3-(5-(5-(2-hydroxypropan-2-yl)-3a, 5,6,6a-tetrahydro-4H-cyclopenta[d]isoxazol-3-yl)-2-methoxybenzamido)-6-(trifluoromethyl)benzo[b]thiophene-2-carboxamide]
743 nM | COc1ccc(C2CCCC(NC3COC3)C2)cc1C(=O)Nc1c(C(=O)Nc2ccc(F)c(C(F)(F)F)c2)sc2cc(C(F)(F)F)ccc12 (single isomer, unassigned) [Example 60, N-(4-fluoro-3-(trifluoromethyl)phenyl)-3-(2-methoxy-5-(3-(oxetan-3-ylamino)cyclohexyl)benzamido)-6-(trifluoromethyl) benzo[b] thiophene-2-carboxamide]
599 nM | COc1ccc(C2CCCC(NC3COC3)C2)cc1C(=O)Nc1c(C(=O)Nc2ccc(F)c(C(F)(F)F)c2)sc2cc(C(F)(F)F)ccc12 (single isomer, unassigned) [Example 61, N-(4-fluoro-3-(trifluoromethyl)phenyl)-3-(2-methoxy-5-(3-(oxetan-3-ylamino)cyclohexyl)benzamido)-6-(trifluoromethyl) benzo[b] thiophene-2-carboxamide]
1460 nM | COc1ccc(C2CCCC(NC3COC3)C2)cc1C(=O)Nc1c(C(=O)Nc2ccc(F)c(C(F)(F)F)c2)sc2cc(C(F)(F)F)ccc12 (single isomer, unassigned) [Example 62, N-(4-fluoro-3-(trifluoromethyl)phenyl)-3-(2-methoxy-5-(3-(oxetan-3-ylamino)cyclohexyl)benzamido)-6-(trifluoromethyl) benzo[b] thiophene-2-carboxamide]
2060 nM | COc1ccc(C2CCCC(NC3COC3)C2)cc1C(=O)Nc1c(C(=O)Nc2ccc(F)c(C(F)(F)F)c2)sc2cc(C(F)(F)F)ccc12 (single isomer, unassigned) [Example 63, N-(4-fluoro-3-(trifluoromethyl)phenyl)-3-(2-methoxy-5-(3-(oxetan-3-ylamino)cyclohexyl)benzamido)-6-(trifluoromethyl) benzo[b] thiophene-2-carboxamide]
293 nM | COc1ccc(N2CCCC(CC(=O)O)C2)cc1C(=O)Nc1c(C(=O)Nc2ccc(F)c(C(F)(F)F)c2)sc2cc(C(F)(F)F)ccc12 (single isomer, unassigned) [Example 64, 2-(1-(3-((2-((4-fluoro-3-(trifluoromethyl)phenyl)carbamoyl)-6-(trifluoromethyl)benzo[b]thiophen-3-yl)carbamoyl)-4-methoxyphenyl)piperidin-3-yl)acetic acid]
662 nM | COc1ccc(N2CCCC(CC(=O)O)C2)cc1C(=O)Nc1c(C(=O)Nc2ccc(F)c(C(F)(F)F)c2)sc2cc(C(F)(F)F)ccc12 (single isomer, unassigned) [Example 65, 2-(1-(3-((2-((4-fluoro-3-(trifluoromethyl)phenyl)carbamoyl)-6-(trifluoromethyl)benzo[b]thiophen-3-yl)carbamoyl)-4-methoxyphenyl)piperidin-3-yl)acetic acid]
